Structures are written as SMILES. Entries after “also recorded” stand apart in the source; their conditions may differ. Like-named read-outs stand apart in the source and are kept apart here.

Series [1] deals with IL-1β production by stimulated J774.A1 macrophages. Description: IL-1β production by LPS + IFN-γ stimulated J774.A1 macrophages (ELISA). It counts as cell-based, murine. Conditions: compounds at 62.5 μM, Dexa 40 μM, 24 h, vs stimulated untreated cells, p < 0.05. How it is done: (§1) Cells were then stimulated with LPS (500 ng/mL) and IFN-γ (5 ng/mL) in the presence of either the test compounds at different concentrations (3.9–250 μM), the medium alone, or dexamethasone (40 μM, reference drug) and further incubated at 37 °C. Cell-free supernatants were collected 24 h after incubation for IL-1β, IL-6, and nitrite quantification. Cytokine concentrations in the supernatants of J774.A1 cultures were determined by enzyme-linked immunosorbent assay (ELISA) using the DuoSet kit (R&D Systems, Minneapolis, MN, USA), according to the manufacturer’s instructions. Results were expressed as picograms per milliliter (pg/mL) of IL-1β or IL-6. Quantification of nitrite as an indicator of nitric oxide production was performed using the Griess method. Three independent experiments were performed. −
(In an ELISA, binding on a coated surface is turned into a signal by an enzyme label.)

The test system of series [2] is IL-6 production by stimulated J774.A1 macrophages. In words: IL-6 production by LPS + IFN-γ stimulated J774.A1 macrophages (ELISA). Format: cell-based, murine. Conditions: compounds at 62.5 μM, Dexa 40 μM, 24 h, vs stimulated untreated cells, p < 0.05. How it is done:
as §1

Series [3] deals with nitric oxide production by stimulated J774.A1 macrophages. Description: Nitric oxide production by LPS + IFN-γ stimulated J774.A1 macrophages (nitrite, Griess method). It counts as cell-based, murine. Conditions: Mus musculus. How it is done:
as §1, with “For cytokine and nitric oxide evaluations, J774.A1 cells were seeded in 96-well tissue culture plates at 2 × 10^5 cells per well in DMEM supplemented with 10% FBS and 50 μg/mL gentamicin and incubated for 2 h at 37 °C in a 5% CO2 atmosphere, as previously described. Cells” for “Cells”
Background: Nitrite, measured by Griess reagent, commonly stands in for NO production.

In series [4] the test system is murine macrophage-like J774.A1 cells. Description: Cytotoxicity to J774.A1 macrophages (Alamar Blue). Conditions: concentrations up to 500 μM (compounds 7 and 13 up to 250 μM). How it is done:
Cells were incubated for 72 h at 37 °C in a 5% CO2 atmosphere, as previously described. They were then stimulated with LPS (500 ng/mL, Sigma Chemical Co., St. Louis, MO, USA) and IFN-γ (5 ng/mL, Sigma). Compounds were added to the medium at eight concentrations ranging from 1.9 to 500 μM, in triplicate, and incubated for 24 h. Subsequently, 20 μL per well of Alamar Blue (Invitrogen, Carlsbad, CA, USA) was added to the plates for 6 h. Compounds 7, 11, and 13 were evaluated only up to a maximum concentration of 250 μM due to the limited amount of purified material available for testing. Colorimetric readings were performed at 570 and 600 nm. Triton X-100 (5%) was used as the positive control.
(In general: The colour change of resazurin is a common sign of viable cells or microbes.)

The mark [5] stands for this setting: J774.A1, 24 h, read-out: IC50, half maximal inhibitory concentration, NO production, J774.A1 macrophages stimulated with LPS (500 ng/mL) + IFN-γ (5 ng/mL), 24 h, nitrite by Griess.
[6] abbreviates: J774.A1, 24 h, read-out: efficacy: maximum effect (% of the maximum possible effect), inhibition of NO production, J774.A1 macrophages stimulated with LPS + IFN-γ, 24 h.
Where [7] appears, read: J774.A1, read-out: IC50 (in Figure 8 panels), nitric oxide production, Figure 8, no unit in the boxes, μM only in axis labels, LPS + IFN-γ stimulated J774.A1.

In the case of `COC1CC(OC2CCC3(C)C(CCC4(O)C3CC(OC(C)=O)C3(C)C(C(C)O)CCC43O)C2)OC(C)C1OC1CC(OC)C(OC2OC(C)C(O)C(OC)C2O)C(C)O1` [Compound 16, 12-O-acetyl-(20S)-5,6,17-trihydrosarcostin-3-O-β-D-6-deoxy-3-O-methyl-allopyranosyl-(1 → 4)-β-D-oleandropyranosyl-(1 → 4)-β-D-cymaropyranoside], in series [1], the “production of IL-1β (in words)” value was “significant reduction”. The “production of IL-6 (in words)” value in series [2] is “reduced IL-1β production but not IL-6”. Further, the IC50 in series [3] (setting [5]) lay within 40 to 70 µM. Also, the Emax in series [3] (setting [6]) was under 50%. Further, the “cytotoxic effects in J774 macrophages (in words)” value (“cytotoxic effects” below) in series [4] is “only mild cytotoxicity at the highest concentrations”.
The like results for `COC1CC(OC2CCC3(C)C(=CCC4(O)C3CC(OC(=O)C=Cc3ccccc3)C3(C)C(O)(C(C)OC(=O)c5cccnc5)CCC43O)C2)OC(C)C1OC1CC(OC)C(OC2OC(C)C(O)C(OC)C2O)C(C)O1` [Compound 1, 12-O-cinnamoyl-20-O-nicotinoyl-(20R)-sarcostin-3-O-β-D-6-deoxy-3-O-methyl-allopyranosyl-(1 → 4)-β-D-oleandropyranosyl-(1 → 4)-β-D-cymaropyranoside] were, in that order, “significant reduction; also recorded: comparable to those of Dexa”, “comparable to those of Dexa”, 24.5 µM, over 70% and “did not induce cytotoxic effects”.
Take `COC1CC(OC2C(C)OC(OC3CCC4(C)C(CCC5(O)C4CC(OC(=O)C=Cc4ccccc4)C4(C)C(C(C)O)CCC54O)C3)CC2OC(C)=O)OC(C)C1OC1OC(C)C(OC2OC(CO)C(OC3OC(CO)C(O)C(O)C3O)C(O)C2O)C(OC)C1O` [Compound 7, 12-O-cinnamoyl-(20S)-5,6,17-trihydrosarcostin-3-O-β-D-glucopyranosyl-(1 → 4)-β-D-glucopyranosyl-(1 → 4)-β-D-6-deoxy-3-O-methyl-allopyranosyl-(1 → 4)-β-D-oleandropyranosyl-(1 → 4)-β-D-3′-O-acetyl-cymaropyranoside]: the “production of IL-1β (in words)” value in series [1] is “did not reduce”. For the same compound, the IC50 in series [3] (setting [5]) was over 100 µM. Besides, the Emax in series [3] (setting [6]) is under 50%. For the same compound, the “cytotoxic effects” value in series [4] is “did not exhibit cytotoxicity at the concentrations tested”.
Take `COC1CC(OC2CCC3(C)C(=CCC4(O)C3CC(OC(=O)C=Cc3ccccc3)C3(C)C(C(C)O)CCC43O)C2)OC(C)C1OC1CC(OC)C(OC2OC(C)C(O)C(OC)C2O)C(C)O1` [Compound 11, 12-O-cinnamoyl-(20S)-17-hydrosarcostin-3-O-β-D-6-deoxy-3-O-methyl-allopyranosyl-(1 → 4)-β-D-oleandropyranosyl-(1 → 4)-β-D-cymaropyranoside]: the “production of IL-1β (in words)” value in series [1] was “significant reduction”. For the same compound, the IC50 in series [3] (setting [5]) and in series [3] (setting [7]) was 47.3 µM in each case. Besides, the Emax in series [3] (setting [6]) was determined as 51.8%. The “cytotoxic effects” value in series [4] is given as “most cytotoxic”.
As to `COC1CC(OC2CCC3(C)C(CCC4(O)C3CC(OC(=O)C=Cc3ccccc3)C3(C)C(C(C)O)CCC43O)C2)OC(C)C1OC1CC(OC)C(OC2OC(C)C(O)C(OC)C2O)C(C)O1` [Compound 15, 12-O-cinnamoyl-(20S)-5,6,17-trihydrosarcostin-3-O-β-D-6-deoxy-3-O-methyl-allopyranosyl-(1 → 4)-β-D-oleandropyranosyl-(1 → 4)-β-D-cymaropyranoside], the “production of IL-1β (in words)” value in series [1] is “significant reduction”. Moreover, the IC50 in series [3] (setting [5]) came to 33.7 µM; in series [3] (setting [7]) it was 33.8 µM. Besides, the Emax in series [3] (setting [6]) worked out at 62.9%. Also, the “cytotoxic effects” value in series [4] is given as “most cytotoxic”.
`C[C@@H]1C[C@H]2[C@@H]3CCC4=CC(=O)C=C[C@]4(C)[C@@]3(F)[C@@H](O)C[C@]2(C)[C@@]1(O)C(=O)CO` [Dexa, dexamethasone, reference compound]: in series [3] (J774.A1, 24 h, J774.A1 macrophages stimulated with LPS (500 ng/mL) + IFN-γ (5 ng/mL), 24 h, nitrite by Griess, read-out: IC50, half maximal inhibitory concentration, NO production), the IC50 was 4.8 µM. Besides, the Emax in series [3] (J774.A1, 24 h, J774.A1 macrophages stimulated with LPS + IFN-γ, 24 h, read-out: efficacy: maximum effect (% of the maximum possible effect), inhibition of NO production) came to 51.6%.
`COC1CC(OC2C(C)OC(OC3CCC4(C)C(CCC5(O)C4CC(OC(C)=O)C4(C)C(C(C)OC(=O)c6ccccc6)CCC54O)C3)CC2OC(C)=O)OC(C)C1OC1OC(C)C(O)C(OC)C1O` [Compound 17, 12-O-acetyl-20-O-benzoyl-(20R)-5,6,17-trihydrosarcostin-3-O-β-D-6-deoxy-3-O-methyl-allopyranosyl-(1 → 4)-β-D-oleandropyranosyl-(1 → 4)-β-D-3′-O-acetyl-cymaropyranoside]: the “production of IL-1β (in words)” value in series [1] is recorded as “significant reduction”. The IC50 in series [3] (setting [5]) and in series [3] (setting [7]) was 46.3 µM throughout. In addition, the Emax in series [3] (setting [6]) is under 50%. Further, the “cytotoxic effects” value in series [4] was “only mild cytotoxicity at the highest concentrations”.
For the compound `COC1CC(OC2C(O)CC(OC3CCC4(C)C(CCC5(O)C4CC(OC(=O)C=Cc4ccccc4)C4(C)C(C(C)O)CCC54O)C3)OC2C)OC(C)C1OC1OC(C)C(O)C(OC)C1O` [Compound 12, 12-O-cinnamoyl-(20S)-5,6,17-trihydrosarcostin-3-O-β-D-6-deoxy-3-O-methyl-allopyranosyl-(1 → 4)-β-D-oleandropyranosyl-(1 → 4)-β-D-digitoxopyranoside], in series [1], the “production of IL-1β (in words)” value is “did not reduce”. Moreover, the IC50 in series [3] (setting [5]) was over 100 µM. Further, the Emax in series [3] (setting [6]) is 62%.
For `COC1CC(OC2CCC3(C)C(CCC4(O)C3CC(OC(C)=O)C3(C)C(C(C)OC(=O)c5ccccc5)CCC43O)C2)OC(C)C1OC1CC(OC)C(OC2OC(C)C(O)C(OC)C2O)C(C)O1` [Compound 18, 12-O-acetyl-20-O-benzoyl-(20R)-5,6,17-trihydrosarcostin-3-O-β-D-6-deoxy-3-O-methyl-allopyranosyl-(1 → 4)-β-D-oleandropyranosyl-(1 → 4)-β-D-cymaropyranoside], the “production of IL-1β (in words)” value in series [1] is listed as “significant reduction”. For the same compound, the IC50 in series [3] (setting [5]) and in series [3] (setting [7]) was 66.2 µM in each case. In series [3] (setting [6]), the Emax was under 50%.
`COC1CC(OC2CCC3(C)C(CCC4(O)C3CC(OC(=O)C=Cc3ccccc3)C3(C)C(C(C)O)CCC43O)C2)OC(C)C1OC1CC(OC)C(OC2OC(C)C(OC3OC(CO)C(OC4OC(CO)C(O)C(O)C4O)C(O)C3O)C(OC)C2O)C(C)O1` [Compound 6, 12-O-cinnamoyl-(20S)-5,6,17-trihydrosarcostin-3-O-β-D-glucopyranosyl-(1 → 4)-β-D glucopyranosyl-(1 → 4)-β-D-6-deoxy-3-O-methyl-allopyranosyl-(1 → 4)-β-D oleandropyranosyl-(1 → 4)-β-D-cymaropyranoside]: in series [1], the “production of IL-1β (in words)” value is given as “did not reduce”. Further, the Emax in series [3] (setting [6]) was under 50%. Further, the “cytotoxic effects” value in series [4] is given as “did not induce cytotoxic effects”.
Take `COC1CC(OC2C(C)OC(OC3CCC4(C)C(CCC5(O)C4CC(OC(=O)C=Cc4ccccc4)C4(C)C(C(C)O)CCC54O)C3)CC2OC(C)=O)OC(C)C1OC1OC(C)C(O)C(OC)C1O` [Compound 13, 12-O-cinnamoyl-(20S)-5,6,17-trihydrosarcostin-3-O-β-D-6-deoxy-3-O-methyl-allopyranosyl-(1 → 4)-β-D-oleandropyranosyl-(1 → 4)-β-D-3′-O-acetyl-cymaropyranoside]: the “production of IL-1β (in words)” value in series [1] is reported as “significant reduction”. For the same compound, the IC50 in series [3] (setting [5]) and in series [3] (setting [7]) was 42.4 µM each time. Also, the Emax in series [3] (setting [6]) is 59.3%. For the same compound, the “cytotoxic effects” value in series [4] is “did not exhibit cytotoxicity at the concentrations tested”.

Source of the values: article PMC13629022 (ACS Omega, 2026).
